Test results from US5639777A, “1,4,5-triphenyl pyrazolyl compounds for the treatment of inflammation and inflammation-related disorders” (G.D. Searle & Co., priority 1996, dated 1997).

Key:
[1] = tested on: carrageenan-induced foot edema in rats; experiment: Rat Carrageenan Foot Pad Edema Test; format: in vivo, Male Sprague-Dawley rats; settings: @ 10 mg/kg body weight; oral; foot volume three hours after carrageenan injection
Procedure: The carrageenan foot edema test was performed with materials, reagents and procedures essentially as described by Winter, et al., (Proc. soc. Exm. Biol. Med., 111, 544 (1962)). Male Sprague-Dawley rats were selected in each group so that the average body weight was as close as possible. Rats were fasted with free access to water for over sixteen hours prior to the test. The rats were dosed orally (1 mL)with compounds suspended in vehicle containing 0.5% methylcellulose and 0.025% surfactant, or with vehicle alone. One hour later a subplantar injection of 0.1 mL of 1% solution of carrageenan/sterile 0.9% saline was administered and the volume of the injected foot was measured with a displacement plethysmometer connected to a pressure transducer with a digital indicator. Three hours after the injection of the carrageenan, the volume of the foot was again measured. The average foot swelling in a group of drug-treated animals was compared with that of a group of placebo-treated animals and the percentage inhibition of edema was determined (Otterness and Bliven, Laboratory Models for Testing NSAIDs, in Non-steroidal Anti-Inflammatory Drugs, (J. Lombardino, ed. 1985)).

[2] = compared with other common anti-inflammatory agents; cited from earlier work

With CS(=O)(=O)c1ccc(-c2c(-c3ccc(F)cc3)c(C(F)(F)F)nn2-c2ccccc2)cc1 [Example 1, 4-(4-Fluorophenyl)-5-[4-(methylsulfonyl)phenyl]-1-phenyl-3-(trifluoromethyl)pyrazole] the “% Inhibition (rat paw edema)” value [1] was 20%.
For O=C(O)Cc1c(-c2ccccc2)c(-c2ccccc2)nn1-c1ccccc1 [Isofezolac, 1,3,4-triphenyl-1H-pyrazole-5-acetic acid], the ulcerogenic [2] is given as “as ulcerogenic as other common anti-inflammatory agents”.
